Test results reported in patent US20240409585A1, “MACROCYCLIC IMMUNOMODULATORS” (priority 2021, published 2024).
Bridge positions count the residues as written; N and C are the ends. Square brackets hold non-standard residues; d marks the D form. Peptide text beside a SMILES is read from it. Phe(3-CF3) = N[C@@H](Cc1cccc(C(F)(F)F)c1)C(=O)O; Bip = N[C@@H](Cc1ccc(-c2ccccc2)cc1)C(=O)O; Phe(3-OMe) = COc1cccc(C[C@H](N)C(=O)O)c1; Cha = N[C@@H](CC1CCCCC1)C(=O)O; Pip = O=C(O)[C@@H]1CCCCN1; NMeA = CN[C@@H](C)C(=O)O; Nle = CCCC[C@H](N)C(=O)O; Orn = NCCC[C@H](N)C(=O)O; Aze = O=C(O)[C@@H]1CCN1; Dab = NCC[C@H](N)C(=O)O

target: T1, PE-labeled human PD-L1-Ig binding to Jurkat cell line over-expressing human PD-1 (Jurkat-PD-1) (Homo sapiens, UniProt Q15116); assay: Jurkat-PD-1 Cell Binding High-Content Screening Assay (CBA): Method 1; conditions: Jurkat-hPD-1 cells, PE-labeled PD-L1-Ig 20 nM final; read-out: Jurkat HPDL1 PD1 IC50 (uM) (Method 1)
T1 construct: expressed in transfected cells; host or cells: Jurkat
T1 sequence (Q15116 25-288): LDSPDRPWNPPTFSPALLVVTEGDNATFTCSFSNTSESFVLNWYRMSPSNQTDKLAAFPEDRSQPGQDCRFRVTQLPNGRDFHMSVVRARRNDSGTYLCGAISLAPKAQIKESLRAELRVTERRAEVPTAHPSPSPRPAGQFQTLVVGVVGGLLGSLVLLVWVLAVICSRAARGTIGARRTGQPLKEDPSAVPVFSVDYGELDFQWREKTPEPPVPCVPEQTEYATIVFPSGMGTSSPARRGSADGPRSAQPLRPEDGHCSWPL

Row | IC50 [µM] | SMILES
1 | 0.09 | CCCC[C@@H]1NC(=O)[C@H](CCCNC(=N)N)NC(=O)[C@@H](CC(C)C)NC(=O)[C@H](C)N(C)C(=O)[C@H](CCCN)NC(=O)[C@H](Cc2ccc(-c3ccccc3)cc2)NC(=O)[C@H](C(C)C)NC(=O)[C@H](Cc2c[nH]c3ccccc23)NC(=O)[C@H](CC(=O)O)NC(=O)[C@H](Cc2ccc(O)cc2)NC(=O)[C@H](CC(N)=O)NC(=O)CSC[C@@H](C(=O)N[C@@H](C)C(N)=O)NC(=O)[C@H]([C@@H](C)O)NC(=O)[C@H](C(C)C)NC1=O [Compound 1289] ({CH2CO}-NYDWV[Bip][Orn][NMeA][dL]R[Nle]VTCA-NH2; thioether N-14)
2 | 0.01 | CC(C)C[C@@H]1NC(=O)[C@H](CCN)NC(=O)[C@@H](CC(C)C)NC(=O)[C@H](C)N(C)C(=O)[C@H](C(C)C)NC(=O)[C@H](Cc2ccc(-c3ccccc3)cc2)NC(=O)[C@H](C(C)C)NC(=O)[C@H](Cc2cccc(C(F)(F)F)c2)NC(=O)[C@H](CC(=O)O)NC(=O)[C@H](Cc2ccc(O)cc2)NC(=O)[C@H](CC(N)=O)NC(=O)CSC[C@@H](C(=O)N[C@@H](C)C(N)=O)NC(=O)[C@H]([C@@H](C)O)NC(=O)[C@H](C(C)C)NC1=O [Compound 1290] ({CH2CO}-NYD[Phe(3-CF3)]V[Bip]V[NMeA][dL][Dab]LVTCA-NH2; thioether N-14)
3 | 0.02 | CC(C)C[C@@H]1NC(=O)[C@H](CCCNC(=N)N)NC(=O)[C@@H](CC(C)C)NC(=O)[C@H](C)N(C)C(=O)[C@H](C(C)C)NC(=O)[C@H](Cc2ccc(-c3ccccc3)cc2)NC(=O)[C@H](C(C)C)NC(=O)[C@H](Cc2cccc(C(F)(F)F)c2)NC(=O)[C@H](CC(=O)O)NC(=O)[C@H](Cc2ccc(O)cc2)NC(=O)[C@H](CC(N)=O)NC(=O)CSC[C@@H](C(=O)N[C@@H](C)C(N)=O)NC(=O)[C@H]([C@@H](C)O)NC(=O)[C@H](C(C)C)NC1=O [Compound 1291] ({CH2CO}-NYD[Phe(3-CF3)]V[Bip]V[NMeA][dL]RLVTCA-NH2; thioether N-14)
4 | 0.03 | COc1cccc(C[C@@H]2NC(=O)[C@H](CC(=O)O)NC(=O)[C@H](Cc3ccc(O)cc3)NC(=O)[C@H](CC(N)=O)NC(=O)CSC[C@@H](C(=O)N[C@@H](C)C(N)=O)NC(=O)[C@H]([C@@H](C)O)NC(=O)[C@H](C(C)C)NC(=O)[C@H](CC(C)C)NC(=O)[C@H](CCCNC(=N)N)NC(=O)[C@@H](CC(C)C)NC(=O)[C@H](C)N(C)C(=O)[C@H](C(C)C)NC(=O)[C@H](Cc3ccc(-c4ccccc4)cc3)NC(=O)[C@H](C(C)C)NC2=O)c1 [Compound 1292] ({CH2CO}-NYD[Phe(3-OMe)]V[Bip]V[NMeA][dL]RLVTCA-NH2; thioether N-14)
5 | 0.07 | CCCC[C@@H]1NC(=O)[C@H](CCCNC(=N)N)NC(=O)[C@@H](CC(C)C)NC(=O)[C@H](C)N(C)C(=O)[C@H](C(C)C)NC(=O)[C@H](Cc2ccc(-c3ccccc3)cc2)NC(=O)[C@H](C(C)C)NC(=O)[C@H](Cc2c[nH]c3ccccc23)NC(=O)[C@H](CC(=O)O)NC(=O)[C@H](Cc2ccc(O)cc2)NC(=O)[C@H](CC(N)=O)NC(=O)CSC[C@@H](C(=O)N[C@@H](C)C(N)=O)NC(=O)[C@H]([C@@H](C)O)NC(=O)[C@H](C(C)C)NC1=O [Compound 1293] ({CH2CO}-NYDWV[Bip]V[NMeA][dL]R[Nle]VTCA-NH2; thioether N-14)
6 | 0.3 | CC(C)C[C@H]1NC(=O)[C@H](C)N(C)C(=O)[C@H](C(C)C)NC(=O)[C@H](Cc2ccc(-c3ccccc3)cc2)NC(=O)[C@H](C(C)C)NC(=O)[C@H](Cc2c[nH]c3ccccc23)NC(=O)[C@H](CC(=O)O)NC(=O)[C@H](Cc2ccc(O)cc2)NC(=O)[C@H](CC(N)=O)NC(=O)CSC[C@@H](C(=O)N[C@@H](C)C(N)=O)NC(=O)[C@H]([C@@H](C)O)NC(=O)[C@H](C(C)C)NC(=O)[C@H](CC2CCCCC2)NC(=O)[C@H](CCCNC(=N)N)NC1=O [Compound 1294] ({CH2CO}-NYDWV[Bip]V[NMeA][dL]R[Cha]VTCA-NH2; thioether N-14)
7 | 0.02 | CCCC[C@@H]1NC(=O)[C@H](CCN)NC(=O)[C@@H](CC(C)C)NC(=O)[C@H](C)N(C)C(=O)[C@H](C(C)C)NC(=O)[C@H](Cc2ccc(-c3ccccc3)cc2)NC(=O)[C@H](C(C)C)NC(=O)[C@H](Cc2c[nH]c3ccccc23)NC(=O)[C@H](CC(=O)O)NC(=O)[C@H](Cc2ccc(O)cc2)NC(=O)[C@H](CC(N)=O)NC(=O)CSC[C@@H](C(=O)N[C@@H](C)C(N)=O)NC(=O)[C@H]([C@@H](C)O)NC(=O)[C@H](C(C)C)NC1=O [Compound 1295] ({CH2CO}-NYDWV[Bip]V[NMeA][dL][Dab][Nle]VTCA-NH2; thioether N-14)
8 | 0.01 | CC(C)C[C@H]1NC(=O)[C@H](C)N(C)C(=O)[C@H](C(C)C)NC(=O)[C@H](Cc2ccc(-c3ccccc3)cc2)NC(=O)[C@H](C(C)C)NC(=O)[C@H](Cc2c[nH]c3ccccc23)NC(=O)[C@H](CC(=O)O)NC(=O)[C@H](Cc2ccc(O)cc2)NC(=O)[C@H](CC(N)=O)NC(=O)CSC[C@@H](C(=O)N[C@@H](C)C(N)=O)NC(=O)[C@H]([C@@H](C)O)NC(=O)[C@H](C(C)C)NC(=O)[C@H](CC2CCCCC2)NC(=O)[C@H](CCN)NC1=O [Compound 1296] ({CH2CO}-NYDWV[Bip]V[NMeA][dL][Dab][Cha]VTCA-NH2; thioether N-14)
9 | 0.32 | CC(C)C[C@@H]1NC(=O)[C@H](CCN)NC(=O)[C@@H](CC(C)C)NC(=O)[C@@H]2CCN2C(=O)[C@H](C(C)C)NC(=O)[C@H](Cc2ccc(-c3ccccc3)cc2)NC(=O)[C@H](C(C)C)NC(=O)[C@H](Cc2c[nH]c3ccccc23)NC(=O)[C@H](CC(=O)O)NC(=O)[C@H](Cc2ccc(O)cc2)NC(=O)[C@H](CC(N)=O)NC(=O)CSC[C@@H](C(=O)N[C@@H](C)C(N)=O)NC(=O)[C@H]([C@@H](C)O)NC(=O)[C@H](C(C)C)NC1=O [Compound 1297] ({CH2CO}-NYDWV[Bip]V[Aze][dL][Dab]LVTCA-NH2; thioether N-14)
10 | 0.03 | CC(C)C[C@@H]1NC(=O)[C@H](CCN)NC(=O)[C@@H](CC(C)C)NC(=O)[C@@H]2CCCCN2C(=O)[C@H](C(C)C)NC(=O)[C@H](Cc2ccc(-c3ccccc3)cc2)NC(=O)[C@H](C(C)C)NC(=O)[C@H](Cc2c[nH]c3ccccc23)NC(=O)[C@H](CC(=O)O)NC(=O)[C@H](Cc2ccc(O)cc2)NC(=O)[C@H](CC(N)=O)NC(=O)CSC[C@@H](C(=O)N[C@@H](C)C(N)=O)NC(=O)[C@H]([C@@H](C)O)NC(=O)[C@H](C(C)C)NC1=O [Compound 1298] ({CH2CO}-NYDWV[Bip]V[Pip][dL][Dab]LVTCA-NH2; thioether N-14)
11 | 0.02 | CC(C)C[C@@H]1NC(=O)[C@H](CCCCN)NC(=O)[C@@H](CC(C)C)NC(=O)[C@H](C)N(C)C(=O)[C@H](C(C)C)NC(=O)[C@H](Cc2ccc(-c3ccccc3)cc2)NC(=O)[C@H](C(C)C)NC(=O)[C@H](Cc2c[nH]c3ccccc23)NC(=O)[C@H](CC(=O)O)NC(=O)[C@H](Cc2ccc(O)cc2)NC(=O)[C@H](CC(N)=O)NC(=O)CSC[C@@H](C(=O)N[C@@H](C)C(N)=O)NC(=O)[C@H]([C@@H](C)O)NC(=O)[C@H](C(C)C)NC1=O [Compound 1299] ({CH2CO}-NYDWV[Bip]V[NMeA][dL]KLVTCA-NH2; thioether N-14)
